Patent US20030166707A1, “Microsphaeropsin B as novel antibacterial agent, process for producing the same and pharmaceutical composition containing thereof” (priority 2001, published 2003)
≈ marks a conversion by molar mass, not a printed value. Like-named read-outs stand apart in the source and are kept apart here.

Experiments:
[1] = Solubility characteristics of isolated Microsphaeropsin B; format: physicochemical
E. coli ATCC 25922 = test: MIC, standard microbroth dilution (NCCLS); format: cell-based; details: Escherichia coli, read-out: Antibacterial activity (MIC)
Procedure: (§1) The compounds of the present invention were tested for minimum inhibitory concentrations (MICs) against the bacteria listed in Table-1 according to the standard microbroth dilution method as described in a NCCLS document. The minimum inhibitory concentrations wer expressed in μg/ml. The test bacteria of 5×10^5 CFU/ml each were subjected to serial dilutions of the test material under aerobic conditions at 35° C. for 18 hours using Mueller Hinton broth. After incubation, the first concentration of wells to show a complete growth inhibition was considered as the MIC.

S. epdermidis ATCC1228 = test: MIC, standard microbroth dilution (NCCLS); format: cell-based; details: read-out: Antibacterial activity (MIC)
Procedure: as §1

E. faecalis 2353 VSE = test: MIC, standard microbroth dilution (NCCLS); format: cell-based; details: Enterococcus faecalis, read-out: Antibacterial activity (MIC)
Procedure: as §1

S. aureus TN1152MRSA = test: MIC, standard microbroth dilution (NCCLS); format: cell-based; details: Staphylococcus aureus, read-out: Antibacterial activity (MIC)
Procedure: as §1

S. aureus ATCC 29213 = test: MIC, standard microbroth dilution (NCCLS); format: cell-based; details: Staphylococcus aureus, read-out: Antibacterial activity (MIC)
Procedure: as §1

E. faecalis 2322 VRE = test: MIC, standard microbroth dilution (NCCLS); format: cell-based; details: Enterococcus faecalis, read-out: Antibacterial activity (MIC)
Procedure: as §1

[2] = ATCC25922, E. coli ATCC 25922, 5×10^5 CFU/ml, Mueller Hinton broth, aerobic, 35° C., 18 hours
[3] = S. epdermidis ATCC1228, 5×10^5 CFU/ml, Mueller Hinton broth, aerobic, 35° C., 18 hours
[4] = E. faecalis 2353 VSE, 5×10^5 CFU/ml, Mueller Hinton broth, aerobic, 35° C., 18 hours
[5] = S. aureus TN1152MRSA, 5×10^5 CFU/ml, Mueller Hinton broth, aerobic, 35° C., 18 hours
[6] = ATCC29213, S. aureus ATCC 29213, 5×10^5 CFU/ml, Mueller Hinton broth, aerobic, 35° C., 18 hours
[7] = E. faecalis 2322 VRE, 5×10^5 CFU/ml, Mueller Hinton broth, aerobic, 35° C., 18 hours

Structure (SMILES) | Behaviour on addition of water ([1]; dissolution in ethanol or dimethyl sulphoxide followed by addition of water) | Solubility ([1]; in 1M sodium hydroxide solution) | Solubility ([1]; in 5% sodium bicarbonate) | Solubility ([1]; in water) | MIC (E. coli ATCC 25922; [2]) [µg/mL] | MIC (S. epdermidis ATCC1228; [3]) [µg/mL] | MIC (E. faecalis 2353 VSE; [4]) [µg/mL] | MIC (S. aureus TN1152MRSA; [5]) [µg/mL] | MIC (S. aureus ATCC 29213; [6]) [µg/mL] | MIC (E. faecalis 2322 VRE; [7]) [µg/mL] | MIC (E. coli ATCC 25922; ATCC25922, 18 h) [µg/mL] | MIC (S. epdermidis ATCC1228; 18 h) [µg/mL] | MIC (E. faecalis 2353 VSE; 2353VSE, 18 h) [µg/mL] | MIC (S. aureus TN1152MRSA; TN1152MRSA, 18 h) [µg/mL] | MIC (S. aureus ATCC 29213; ATCC29213, 18 h) [µg/mL] | MIC (E. faecalis 2322 VRE; VRE, 18 h) [µg/mL]
C/C=C/C=C/C1C=CC2CC(C)CCC2C1(C)C(=O)C1=C(O)C(C(C)O)NC1=O (stereo not shown) [Microsphaeropsin B] | immediate precipitate formation | insoluble | insoluble | insoluble | > 32 | 1 (≈ 2.5 µM) | 1 (≈ 2.5 µM) | 0.5 (≈ 1.25 µM) | 0.5 (≈ 1.25 µM) | 2 (≈ 5.01 µM) | – | – | – | – | – | –
CN[C@H](CC(C)C)C(=O)N[C@H]1C(=O)N[C@@H](CC(N)=O)C(=O)N[C@H]2C(=O)N[C@H]3C(=O)N[C@H](C(=O)N[C@H](C(=O)O)c4cc(O)cc(O)c4-c4cc3ccc4O)[C@H](O)c3ccc(c(Cl)c3)Oc3cc2cc(c3O[C@@H]2O[C@H](CO)[C@@H](O)[C@H](O)[C@H]2O[C@H]2C[C@](C)(N)[C@H](O)[C@H](C)O2)Oc2ccc(cc2Cl)[C@H]1O [Vancomycin] | – | – | – | – | – | – | – | – | – | – | > 32 | 0.5 (≈ 0.345 µM) | 0.25 (≈ 0.173 µM) | 0.25 (≈ 0.173 µM) | 0.5 (≈ 0.345 µM) | 16 (≈ 11 µM)
CC1(C)S[C@@H]2[C@H](NC(=O)[C@H](N)c3ccccc3)C(=O)N2[C@H]1C(=O)O [Ampicillin] | – | – | – | – | 2 (≈ 5.72 µM) | 16 (≈ 45.8 µM) | 0.25 (≈ 0.715 µM) | 8 (≈ 22.9 µM) | 0.062 (≈ 0.177 µM) | 32 (≈ 91.6 µM) | – | – | – | – | – | –
